According to PubChem BioAssay AID1918940 (Molecular Pharmacology Branch, DTP, NCI, 2023):

Tested on: NCI-H211 complex spheroid viability
Experiment: Anticancer human tumor NCI-H211 cell line growth inhibition [LSD1];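 note: luminescent viability read after seven days of drug exposure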;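 for viability, T/C: 100% = DMSO vehicle control viability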
Conditions: for IC50: curve of first compound; for viability, T/C: stronger effect = lower value; active = viability on the fitted dose curve at most 10% of control; inactive = the rest
In short: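 Complex spheroids of tumor cells with HUVEC and human MSCs, exposed to iadademstat combined with other agents. Each agent tested in half-log steps from near clinical Cmax (else 10 microM top), DMSO ≤0.25%.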

[1] = second compound 0.1 µM, first compound 0.00316 µM
[2] = second compound 0.1 µM, first compound 0.01 µM
[3] = second compound 0.1 µM, first compound 0.0316 µM
[4] = second compound 0.1 µM, first compound 0.1 µM
[5] = second compound 0.1 µM, first compound 0.316 µM
[6] = second compound 0.1 µM, first compound 1 µM
[7] = second compound 0.316 µM, first compound 0.00316 µM
[8] = second compound 0.316 µM, first compound 0.01 µM
[9] = second compound 0.316 µM, first compound 0.0316 µM
[10] = second compound 0.316 µM, first compound 0.1 µM
[11] = second compound 0.316 µM, first compound 0.316 µM
[12] = second compound 0.316 µM, first compound 1 µM
[13] = second compound 1 µM, first compound 0.00316 µM
[14] = second compound 1 µM, first compound 0.01 µM
[15] = second compound 1 µM, first compound 0.0316 µM
[16] = second compound 1 µM, first compound 0.1 µM
[17] = second compound 1 µM, first compound 0.316 µM
[18] = second compound 1 µM, first compound 1 µM
[19] = second compound 3.16 µM, first compound 0.00316 µM
[20] = second compound 3.16 µM, first compound 0.01 µM
[21] = second compound 3.16 µM, first compound 0.0316 µM
[22] = second compound 3.16 µM, first compound 0.1 µM
[23] = second compound 3.16 µM, first compound 0.316 µM
[24] = second compound 3.16 µM, first compound 1 µM
[25] = second compound 10 µM, first compound 0.00316 µM
[26] = second compound 10 µM, first compound 0.01 µM
[27] = second compound 10 µM, first compound 0.0316 µM
[28] = second compound 10 µM, first compound 0.1 µM
[29] = second compound 10 µM, first compound 0.316 µM
[30] = second compound 10 µM, first compound 1 µM

O=C(C=Cn1cnc(-c2cc(C(F)(F)F)cc(C(F)(F)F)c2)n1)NNc1cnccn1 + NC1CC1c1ccc(-c2cccc(O)c2)cc1
< 3.16 nM: IC50 (second compound 0.1 µM) | IC50 (second compound 0.316 µM) | IC50 (second compound 1 µM) | IC50 (second compound 3.16 µM) | IC50 (second compound 10 µM)
inactive: viability, T/C [1] 45.6% | viability, T/C [2] 35.5% | viability, T/C [3] 16.3% | viability, T/C [7] 29.8% | viability, T/C [8] 29% | viability, T/C [9] 14.4% | viability, T/C [13] 38.4% | viability, T/C [14] 32.6% | viability, T/C [15] 12.8% | viability, T/C [19] 47.7% | viability, T/C [20] 29.5% | viability, T/C [21] 16.6% | viability, T/C [25] 40.6% | viability, T/C [26] 28.6% | viability, T/C [27] 17.8%
active: viability, T/C [4] 6.54% | viability, T/C [5] 2.54% | viability, T/C [6] 2.3% | viability, T/C [10] 6.98% | viability, T/C [11] 2.61% | viability, T/C [12] 2.22% | viability, T/C [16] 6.89% | viability, T/C [17] 3.1% | viability, T/C [18] 2.61% | viability, T/C [22] 7.35% | viability, T/C [23] 3.74% | viability, T/C [24] 2.99% | viability, T/C [28] 9.12% | viability, T/C [29] 3.24% | viability, T/C [30] 3.79%

COc1cc(C2c3cc4c(cc3C(OC3OC5COC(C)OC5C(O)C3O)C3COC(=O)C23)OCO4)cc(OC)c1O (stereo not given) + NC1CCC(NC2CC2c2ccccc2)CC1
9.89 nM: IC50 (second compound 0.1 µM)
9.92 nM: IC50 (second compound 0.316 µM)
inactive: viability, T/C (second compound 0.1 µM, first compound 0.00949 µM) 51.4% | viability, T/C (second compound 0.1 µM, first compound 0.03 µM) 14.5% | viability, T/C (second compound 0.316 µM, first compound 0.00949 µM) 51.7% | viability, T/C (second compound 0.316 µM, first compound 0.03 µM) 12.7% | viability, T/C (second compound 1 µM, first compound 0.00949 µM) 46.1% | viability, T/C (second compound 1 µM, first compound 0.03 µM) 11.6% | viability, T/C (second compound 3.16 µM, first compound 0.00949 µM) 42.2% | viability, T/C (second compound 3.16 µM, first compound 0.03 µM) 10.5% | viability, T/C (second compound 10 µM, first compound 0.00949 µM) 18.9%
active: viability, T/C (second compound 0.1 µM, first compound 0.0949 µM) 2.21% | viability, T/C (second compound 0.1 µM, first compound 0.3 µM) 5.34% | viability, T/C (second compound 0.1 µM, first compound 0.949 µM) 1.9% | viability, T/C (second compound 0.1 µM, first compound 3 µM) 2.19% | viability, T/C (second compound 0.316 µM, first compound 0.0949 µM) 1.66% | viability, T/C (second compound 0.316 µM, first compound 0.3 µM) 2.34% | viability, T/C (second compound 0.316 µM, first compound 0.949 µM) 2.35% | viability, T/C (second compound 0.316 µM, first compound 3 µM) 2.14% | viability, T/C (second compound 1 µM, first compound 0.0949 µM) 2.2% | viability, T/C (second compound 1 µM, first compound 0.3 µM) 2.36% | viability, T/C (second compound 1 µM, first compound 0.949 µM) 2.33% | viability, T/C (second compound 1 µM, first compound 3 µM) 2.08% | viability, T/C (second compound 3.16 µM, first compound 0.0949 µM) 2.02% | viability, T/C (second compound 3.16 µM, first compound 0.3 µM) 2.37% | viability, T/C (second compound 3.16 µM, first compound 0.949 µM) 1.62% | viability, T/C (second compound 3.16 µM, first compound 3 µM) 1.85% | viability, T/C (second compound 10 µM, first compound 0.03 µM) 4.24% | viability, T/C (second compound 10 µM, first compound 0.0949 µM) 0.87% | viability, T/C (second compound 10 µM, first compound 0.3 µM) 0.66% | viability, T/C (second compound 10 µM, first compound 0.949 µM) 0.79% | viability, T/C (second compound 10 µM, first compound 3 µM) 0.69%
< 9.49 nM: IC50 (second compound 1 µM) | IC50 (second compound 3.16 µM) | IC50 (second compound 10 µM)

Nc1ncn(C2CC(O)C(CO)O2)c(=O)n1 (stereo not given) + NC1CCC(NC2CC2c2ccccc2)CC1
inactive: viability, T/C [1] 26.7% | viability, T/C [2] 17.8% | viability, T/C [7] 35% | viability, T/C [8] 16% | viability, T/C [13] 33% | viability, T/C [14] 16.2% | viability, T/C [19] 29.3% | viability, T/C [20] 17.8% | viability, T/C [25] 11.7%
active: viability, T/C [3] 7.44% | viability, T/C [4] 3.11% | viability, T/C [5] 1.96% | viability, T/C [6] 1.81% | viability, T/C [9] 9.7% | viability, T/C [10] 2.44% | viability, T/C [11] 1.9% | viability, T/C [12] 1.78% | viability, T/C [15] 7.52% | viability, T/C [16] 3.4% | viability, T/C [17] 1.88% | viability, T/C [18] 1.32% | viability, T/C [21] 6.93% | viability, T/C [22] 2.47% | viability, T/C [23] 1.82% | viability, T/C [24] 1.39% | viability, T/C [26] 5.2% | viability, T/C [27] 2.56% | viability, T/C [28] 0.89% | viability, T/C [29] 0.77% | viability, T/C [30] 0.61%
< 3.16 nM: IC50 (second compound 0.1 µM) | IC50 (second compound 0.316 µM) | IC50 (second compound 1 µM) | IC50 (second compound 3.16 µM) | IC50 (second compound 10 µM)
